# Where no end group is shown, it is not given here.
# Experiments:
# Format in all cases: cell-based
# [1] = tested on: rat red blood cells; test: Hemolysis; conditions: 6.25 µM; 8% (v/v) rat RBCs in PBS, 1 h, 37 °C, absorbance 414 nm
# Experimental: Fresh rat erythrocytes were collected and washed by centrifugation at 1000× g for 10 min with PBS. The rat RBCs (8% (v/v)) were added in a two-fold serially diluted peptide with PBS, followed by incubation for 1 h at 37 °C. After centrifugation of samples at 1000× g for 10 min, the supernatants were collected and their absorbance was measured at 414 nm. The 8% RBCs dissolved in PBS and RBCs treated with Triton X-100 were considered as the negative and positive controls, respectively. The hemolysis activity was calculated using the formula, % hemolysis = [(Abssample − Absnegative)/(Abspositive − Absnegative)] × 100 [43, 44].
# [2] = tested on: HaCaT (human keratinocyte) cells; test: Cytotoxicity (MTT); conditions: 200 µM, 24 h, 37 °C
# Experimental: To examine the cytotoxic effect of peptides, HaCaT (human keratinocyte) cells were sub-cultured in Dulbecco’s modified Eagle medium (DMEM) containing 10% fetal bovine serum, 100 µg/mL streptomycin, and 100 U/mL penicillin at 37 °C in a 5% CO2 chamber. The cells seeded into 4 × 10^3 cells/well were incubated for 24 h. Peptide solutions diluted with DMEM were incubated with cells for 24 h at 37 °C. 3-(4,5-Dimethyl-2-thiazolyl)-2,5-diphenyltetrazolium Bromide (MTT) solution was added to the cells, followed by additional incubation for 4 h. After removing the media, 200 µL of dimethyl sulfoxide was added to the wells. Absorbance of each well was measured at 570 nm using a microtiter reader (Molecular Devices Emax, CA, USA).
# [3] = tested on: Bacillus subtilis (KCTC 1998); conditions: KCTC 1998, 24 h, pH 7.2
# Text: (§1) Pseudomonas aeruginosa (ATCC 15692), Escherichia coli (ATCC 25922), and Staphylococcus aureus (ATCC 25923) were purchased from the American Type Culture Collection. Listeria monocytogens (KCTC 3710) and Bacillus subtilis (KCTC 1998) were from the Korean Collection for Type Cultures. Drug-resistant S. aureus (DRSa-001~005) and P. aeruginosa (DRPa-001~005) were collected from Paik Hospital of Inje University in Busan, South Korea. Pre-cultured bacteria grown to mid-log phase were suspended in 10 mM sodium phosphate (SP, pH 7.2) or phosphate-buffered saline (PBS, pH 7.2) with 10% culture media. Bacterial suspensions were added to each peptide dilute (final 5 × 10^5 colony-forming units (cfu)/mL), after which the plates were incubated at 37 °C for 24 h. The turbidity of each well was measured at the absorbance at 600 nm and the morphology of bacterial growth was observed under light microscopy. MICs (Minimum inhibitory concentrations) were defined as the lowest concentration of peptide that expresses the complete inhibition of bacterial growth.
# [4] = tested on: Escherichia coli (ATCC 25922); conditions: ATCC 25922, 24 h, pH 7.2
# Text: as §1
# [5] = tested on: Listeria monocytogenes (KCTC 3710); conditions: KCTC 3710, 24 h, pH 7.2
# Text: as §1
# [6] = tested on: Pseudomonas aeruginosa (ATCC 15692); conditions: ATCC 15692, 24 h, pH 7.2
# Text: as §1
# [7] = tested on: Staphylococcus aureus (ATCC 25923); conditions: ATCC 25923, 24 h, pH 7.2
# Text: as §1
Compound,Hemolytic effect [1],Cell survival [2],"MIC, Bs [3]","MIC, Bs (numbers in parentheses) [3]","MIC, Ec [4]","MIC, Ec (numbers in parentheses) [4]","MIC, Lm [5]","MIC, Lm (numbers in parentheses) [5]","MIC, Pa [6]","MIC, Pa (numbers in parentheses) [6]","MIC, Sa [7]","MIC, Sa (numbers in parentheses) [7]"
CC[C@H](C)[C@H](NC(=O)CN)C(=O)NCC(=O)N[C@@H](C)C(=O)N[C@H](C(=O)N[C@@H](CC(C)C)C(=O)N[C@@H](CCCCN)C(=O)N[C@H](C(=O)N[C@@H](CC(C)C)C(=O)N[C@H](C(=O)N[C@H](C(=O)NCC(=O)N[C@@H](CC(C)C)C(=O)N1CCC[C@H]1C(=O)N[C@@H](C)C(=O)N[C@@H](CC(C)C)C(=O)N[C@H](C(=O)N[C@@H](CO)C(=O)N[C@@H](Cc1c[nH]c2ccccc12)C(=O)N[C@H](C(=O)N[C@@H](CCCCN)C(=O)N[C@@H](CCCNC(=N)N)C(=O)N[C@@H](CCCCN)C(=O)N[C@@H](CCCNC(=N)N)C(=O)N[C@@H](CCC(N)=O)C(=O)N[C@@H](CCC(N)=O)C(N)=O)[C@@H](C)CC)[C@@H](C)CC)[C@@H](C)O)[C@@H](C)O)C(C)C)C(C)C [Melittin],strong hemolytic effect,less than 20%,–,–,–,–,–,–,–,–,–,–
KKIIKKIIKKIWKW-NH2 [KIW-14],–,–,1 µM,2 µM,4(4) μM,4(4) μM,0.5 µM,1 µM,2(2) μM,2(2) μM,4 µM,8 µM
KKIIKKIWKW-NH2 [KIW-10],–,–,4 µM,32 µM,8 µM,64 µM,4 µM,128 µM,16 µM,64 µM,16 µM,128 µM
KKIWKKWIKI-NH2 [KWI-10],–,–,2 µM,32 µM,8 µM,64 µM,2 µM,64 µM,16 µM,64 µM,16 µM,128 µM
KKIWKKWIKKIIKI-NH2 [KWI-14],–,–,1 µM,2 µM,4(4) μM,4(4) μM,0.5 µM,1 µM,2(2) μM,2(2) μM,4 µM,8 µM
RRIIRRIWRW-NH2 [RIW-10],–,–,2 µM,4 µM,8 µM,16 µM,2 µM,8 µM,16 µM,32 µM,8 µM,16 µM
RRIWRRWIRI-NH2 [RWI-10],–,–,1 µM,4 µM,2 µM,4 µM,2 µM,8 µM,16 µM,32 µM,8 µM,16 µM
WIKKIWKKIIKEIK-NH2 [WIKE-14],–,–,2 µM,8 µM,4 µM,64 µM,4 µM,8 µM,8 µM,32 µM,16 µM,128 µM
WIKKIWKKIIKKIK-NH2 [WIK-14],–,–,1(1) μM,1(1) μM,4(4) μM,4(4) μM,0.5 µM,1 µM,2(2) μM,2(2) μM,2((2) μM,2((2) μM
WIKKIWKKIK-NH2 [WIK-10],–,–,2 µM,8 µM,8 µM,32 µM,2 µM,16 µM,8 µM,32 µM,8 µM,64 µM
WIRRIWRRIR-NH2 [WIR-10],–,–,1(1) μM,1(1) μM,2 µM,4 µM,2(2) μM,2(2) μM,4 µM,8 µM,4 µM,8 µM
